Reference: ChEMBL document CHEMBL6103644, “Efficient and Selective Biosynthesis of a Precursor-Directed FK506 Analogue: Paving the Way for Click Chemistry” (J Nat Prod, 2025)
Calls of active or inactive are those of the source. The rule behind the calls is not given here.

Legend:
[1] = Cytotoxicity against C57BL/6 mouse CD4+ T cells assessed as increase in cell death at 5 nM incubated for 4 days by Live/Dead staining based flow cytometry; type: toxicity; settings: 96 h, 0.005 µM, time 4 day
[2] = Cytotoxicity against C57BL/6 mouse CD4+ T cells assessed as increase in cell death at >10 nM incubated for 4 days by Live/Dead staining based flow cytometry; type: toxicity; settings: 96 h, 0.01 µM, time 4 day
CD4+ T cell [3] = experiment: Immunosuppressive activity in C57BL/6 mouse CD4+ T cells co-cultured with allogeneic bone marrow-derived BALB/c mouse dendritic cells assessed as reduction in CD4+ T cell numbers at cell cycle 4 at 5 nM incubated for 4 days by CellTrace Violet staining based flow cytometry; type: functional; settings: time 4.0 day
[4] = Cytotoxicity against C57BL/6 mouse CD4+ T cells assessed as increase in cell death at 0.5 to 100 nM incubated for 4 days by Live/Dead staining based flow cytometry; type: toxicity; settings: 96 h, 0.1 µM, dose 0.5-100 nM, time 4 day
CD4+ T cell [5] = experiment: Immunosuppressive activity in C57BL/6 mouse CD4+ T cells co-cultured with allogeneic bone marrow-derived BALB/c mouse dendritic cells assessed as inhibition of CD4+ T cell proliferation at 1 nM incubated for 4 days by CellTrace Violet staining based flow cytometry; type: functional; settings: time 4.0 day

Compound	Activity [1]	Activity [2]	Activity (CD4+ T cell [3])	Activity [4]	inhibition (CD4+ T cell [5])
C#CC[C@@H]1/C=C(\C)C[C@H](C)C[C@H](OC)[C@H]2O[C@@](O)(C(=O)C(=O)N3CCCC[C@H]3C(=O)O[C@H](/C(C)=C/[C@@H]3CC[C@@H](O)[C@H](OC)C3)[C@H](C)[C@@H](O)CC1=O)[C@H](C)C[C@@H]2OC	Non-toxic	Toxic	Active	–	–
C=CC[C@@H]1/C=C(\C)C[C@H](C)C[C@H](OC)[C@H]2O[C@@](O)(C(=O)C(=O)N3CCCC[C@H]3C(=O)O[C@H](/C(C)=C/[C@@H]3CC[C@@H](O)[C@H](OC)C3)[C@H](C)[C@@H](O)CC1=O)[C@H](C)C[C@@H]2OC [TACROLIMUS ANHYDROUS]	–	–	–	Toxic	Active
